Patent US8703715B2, “Methods for inhibiting growth of prolactin-responsive cancer cells with cyclosporine a or other cyclophilin inhibitors” (The Trustees of the University of Pennsylvania, priority 2004, dated 2014)

How the values were obtained:
[1] = tested on: breast cancer cells; details: breast cancer cells in culture
[2] = human patients, approved indications (immunosuppressive use); cited from earlier work

cyclosporine A
media concentration having profound effects on survival of breast cancer cells [1]: ≥ 20 ng/mL
Peak serum concentrations [2]: 2 to 8 µg/mL
